Measurements taken from EP4790048A1, “S1PR4 REGULATOR COMPOUND FOR AUTOIMMUNE DISEASE TREATMENT AND APPLICATION THEREOF” (Shengyuan Zetong (Shanghai) Pharmaceutical Co., Ltd, priority 2023, dated 2025).
Where a chain is given by its changes, count along the chain named. Read-outs that look alike come from different tables or passages of the source. Values belong to the compound of their own block, whether it stands above or below them.

What was measured:
hS1P4-R-79C = target: T1, hS1P4-R-79C (Homo sapiens, UniProt O95977, R79C); assay: Tango β-arrestin recruitment luciferase assay, Tango-hS1P4-R-79C-CHO (S1PR4 mutant); assay type: cell-based; conditions: 20 h drug treatment
T1 construct: expressed in transfected cells; host or cells: CHO
T1 sequence (O95977 1-384 R79C): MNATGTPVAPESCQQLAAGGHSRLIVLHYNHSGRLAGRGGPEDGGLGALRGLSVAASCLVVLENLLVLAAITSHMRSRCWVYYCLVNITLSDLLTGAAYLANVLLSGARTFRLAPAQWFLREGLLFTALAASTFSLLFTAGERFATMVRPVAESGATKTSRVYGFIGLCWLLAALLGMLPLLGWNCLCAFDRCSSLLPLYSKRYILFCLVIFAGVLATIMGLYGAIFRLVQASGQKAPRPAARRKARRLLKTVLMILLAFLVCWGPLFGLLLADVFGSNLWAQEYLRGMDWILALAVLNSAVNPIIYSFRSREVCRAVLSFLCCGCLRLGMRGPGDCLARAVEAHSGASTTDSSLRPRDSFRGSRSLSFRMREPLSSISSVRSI
From the text: (§1) The Tango assay detects ligand-dependent GPCR activity through the interaction between β-arrestin and GPCRs. […] The NTEV fragment and the tetracycline transactivator (tTA), an artificial transcription factor, are fused at the C-terminus of the GPCR, while the CTEV fragment is fused to human β-arrestin 2. To enhance the stability of the interaction between GPCR and β-arrestin, a short sequence from the C-terminus of the human arginine vasopressin receptor 2 (V2 tail) is inserted between the GPCR and NTEV. The V2 tail contains multiple GRK phosphorylation sites, which strengthen β-arrestin binding upon phosphorylation. The CTEV fragment carries the stabile point mutation S219P and is truncated at residue 221 to remove the autoinhibitory C-terminal tail. Meanwhile, β-arrestin 2 is truncated to lack the entire C-terminal tail (residues 383-410 deleted). This truncation confers robust stimulus-dependent receptor desensitization, thereby improving detection sensitivity compared with wild-type β-arrestin 2. The UAS reporter construct consists of upstream activating sequence (UAS) elements, a minimal CMV promoter, and a tTA-dependent luciferase reporter gene. Therefore, constructing Tango cells requires the co-transfection of the above three plasmids into host cells. Upon GPCR activation and β-arrestin recruitment, the TEV enzyme at the β-arrestin terminus cleaves tTA from the GPCR C-terminus. The released tTA initiates tTA-dependent luciferase transcription, and compound activity is ultimately determined by measuring luminescence intensity.
(§2) • 1) Tango cell line from was digested from the culture dish respectively. After cell counting, the cells were plated at a density of 10,000 cells per well with […] into a white opaque 96-well plate (add 60 µL D'Hanks to the surrounding wells), and incubated overnight (20 h) in a 5% CO2 incubator at 37°C. The cell density will reach approximately 90% the next day. • 2) After 20 h, 30 µL of serially diluted compound solution was added to each well. The control group was supplemented with 30 µL F12K complete medium. Each group had three replicate wells. • 3) Samples were collected after 20 h of drug treatment.
(§3) (All compounds were tested at a final concentration of 45 µM, with 9 serial dilutions at 5-fold intervals. 1 µM BAF-312 was used as the positive control for S1PR1, and 25 µM BAF-312 was used as the positive control for S1PR4.

hS1P1 = target: T2, hS1P1 (Homo sapiens, UniProt P21453); assay: Tango β-arrestin recruitment luciferase assay, Tango-hS1P1-CHO; assay type: cell-based
T2 construct: expressed in transfected cells; host or cells: CHO
From the text: as §1, §2, §3

hS1P4 = target: T3, hS1P4 (Homo sapiens, UniProt O95977); assay: Tango β-arrestin recruitment luciferase assay, Tango-hS1P4-CHO; assay type: cell-based; conditions: S1PR4; Tango-S1PR4-CHO-K1 cells; mean ± SD; read-out: EC50
T3 construct: expressed in transfected cells; host or cells: CHO
T3 sequence (O95977 1-384): T1 sequence (O95977 1-384 R79C) with C79R
From the text: as §1, §2, §3

S1PR4 = target: T4, S1PR4 (Homo sapiens, UniProt O95977); assay: S1PR4 internalization and recovery test in S1PR4-293T cells; assay type: cell-based; conditions: 1 µM, 37 °C, 1.5 hours; detected immediately, 5 hours or 20 hours after treatment
T4 construct: expressed in transfected cells; host or cells: 293T
T4 sequence (O95977 1-384): T1 sequence (O95977 1-384 R79C) with C79R
Method: Therefore, the recovery degree of S1PR4 after internalization caused by Compound 30 was evaluated, and the recovery effect following receptor internalization caused by Compound 30 was assessed in cells with high S1PR4 expression.

S1PR3 = target: T5, S1PR3 (Homo sapiens, UniProt Q99500); assay: β-arrestin recruitment, PathHunter CHO-K1-S1PR3 cells; assay type: cell-based; conditions: mean ± SD, read-out: EC50
T5 construct: expressed in transfected cells

[1] = Pharmacokinetic property testing in rats; assay type: in vivo, SD rats; conditions: for Tmax: 3 per group
From the text: In the structure-activity relationship discussion, the inventors obtained key compound 22. Based on compound 22, the polar head of the compound was modified as chiral pyrrolidine carboxylic acid, yielding selective S1PR4 agonists 30 and 67. We conducted pharmacokinetic property analyses on compounds 22, 30, and 67, respectively.

[2] = β-arrestin recruitment, 20 h drug treatment, top 45 µM, 9 serial 5-fold dilutions, positive control 1 µM BAF-312, read-out: Tango-hS1P1-CHO EC50
[3] = Sprague-Dawley, rat, in vivo, IV (1 mg/kg), male SD rats
[4] = Sprague-Dawley, rat, in vivo, PO (10 mg/kg), male SD rats

T2 sequence (P21453 whole entry): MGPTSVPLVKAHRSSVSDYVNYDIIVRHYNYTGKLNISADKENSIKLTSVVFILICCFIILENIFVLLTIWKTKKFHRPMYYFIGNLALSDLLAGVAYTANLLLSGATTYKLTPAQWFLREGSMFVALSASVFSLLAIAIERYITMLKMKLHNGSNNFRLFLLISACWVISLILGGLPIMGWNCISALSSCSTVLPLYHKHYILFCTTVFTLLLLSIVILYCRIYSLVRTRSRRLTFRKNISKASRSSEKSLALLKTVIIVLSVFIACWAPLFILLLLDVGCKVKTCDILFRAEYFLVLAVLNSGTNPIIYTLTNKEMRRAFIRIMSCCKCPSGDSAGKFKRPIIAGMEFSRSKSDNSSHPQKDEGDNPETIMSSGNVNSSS
T5 sequence (Q99500 whole entry, species assumed): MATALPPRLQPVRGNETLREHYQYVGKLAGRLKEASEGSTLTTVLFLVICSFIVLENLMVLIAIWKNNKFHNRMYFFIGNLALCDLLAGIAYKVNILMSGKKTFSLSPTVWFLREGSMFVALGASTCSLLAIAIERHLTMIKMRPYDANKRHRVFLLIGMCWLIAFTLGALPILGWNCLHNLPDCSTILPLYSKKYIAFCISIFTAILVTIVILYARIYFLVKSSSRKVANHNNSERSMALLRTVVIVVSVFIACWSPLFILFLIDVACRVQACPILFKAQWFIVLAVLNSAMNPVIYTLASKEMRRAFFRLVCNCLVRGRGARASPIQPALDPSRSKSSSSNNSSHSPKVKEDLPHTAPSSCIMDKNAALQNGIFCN

EC50 (hS1P4-R-79C): 73.1 nM
EC50 (hS1P1; [2]): 128 nM
SMILES: CCc1cc(/C(C)=N/OCc2ccc(-c3ccccc3)c(C)c2)ccc1CNCCC(=O)O [Compound 31]

EC50 (hS1P4): 100 ± 21.9 nM
EC50 (S1PR3): 20.6 ± 3.37 nM
EC50 (hS1P1; S1PR1, Tango-S1PR1-CHO-K1 cells, mean ± SD, read-out: EC50): 8.52 ± 1.06 nM
SMILES: CCCCCCCCCCCCC/C=C/[C@@H](O)[C@@H](N)COP(=O)(O)O [Compound S1P, Sphingosine-1-phosphate, reference compound]
S1PR4 internalization (expression of S1PR4 receptor on the cell surface) (S1PR4): can induce S1PR4 internalization, with receptor expression recovering after 20 hours

S1PR4 internalization (expression of S1PR4 receptor on the cell surface) (S1PR4): cannot induce S1PR4 internalization
SMILES: CCc1cc(/C(C)=N/OCc2ccc(C3CCCCC3)c(C(F)(F)F)c2)ccc1CN1CC(C(=O)O)C1 [BAF312]

EC50 (hS1P4-R-79C): 27 nM
CL_obs ([1]; IV (1 mg/kg), male SD rats): 34.7 ± 3.17 mL/min/kg
Vss_obs ([1]; IV (1 mg/kg), male SD rats): 0.88 ± 0.07 L/kg
CL_obs ([1]; PO (10 mg/kg), male SD rats): 148 ± 64.3 mL/min/kg
Vss_obs ([1]; PO (10 mg/kg), male SD rats): 27.73 ± 16.85 L/kg
AUC(0-t) [1, 3]: 476 ± 43.6 ng·h/mL
Cmax [1, 3]: 995 ± 53.2 ng/mL
half-life [1, 3]: 25.2 ± 1.8 min
Tmax [1, 3]: 4.8 min
AUC(0-t) [1, 4]: 1120 ± 400 ng·h/mL
Cmax [1, 4]: 544 ± 221 ng/mL
half-life [1, 4]: 130 ± 57.6 min
Tmax [1, 4]: 49.8 ± 17.4 min
bioavailability ([1]; male, Sprague-Dawley, rat, in vivo, oral, 10 mg/kg): 23.5%
F (%) ([1]; oral bioavailability, PO 10 mg/kg vs IV 1 mg/kg, male SD rats): 23.5%
SMILES: CCc1cc(/C(C)=N/OCc2ccc(-c3ccccc3)c(C)c2)ccc1CN1CC(C(=O)O)C1 [Compound 22, (E)-1-(2-ethyl-4-(1-((2-methyl-[1,1'-biphenyl]-4-yl)methoxy)imino)ethyl)azetidine-3-carboxylic acid]

EC50 (hS1P4-R-79C): 87.2 nM
EC50 (hS1P1; [2]): 169 nM
SMILES: CCc1cc(/C(C)=N/OCc2ccc(-c3ccccc3)c(C)c2)ccc1CN1CC[C@@H](C(=O)O)C1 [Compound 29]
